Experimental findings from ChEMBL document CHEMBL4665885, “Structural Basis of Nanomolar Inhibition of Tumor-Associated Carbonic Anhydrase IX: X-Ray Crystallographic and Inhibition Study of Lipophilic Inhibitors with Acetazolamide Backbone” (J Med Chem, 2020) are described below.

Test [1] deals with Carbonic anhydrase 1 (Homo sapiens, UniProt P00915). Put plainly: Inhibition of recombinant human CA1 expressed in Escherichia coli BL21 preincubated for 15 mins by phenol red dye-based stopped-flow CO2 hydration assay.
Test [2] has as its target Carbonic anhydrase 9 (Homo sapiens, UniProt Q16790). Put plainly: Inhibition of recombinant human CA9 expressed in Escherichia coli BL21 preincubated for 15 mins by phenol red dye-based stopped-flow CO2 hydration assay.

Chain of Carbonic anhydrase 1 (P00915 whole entry): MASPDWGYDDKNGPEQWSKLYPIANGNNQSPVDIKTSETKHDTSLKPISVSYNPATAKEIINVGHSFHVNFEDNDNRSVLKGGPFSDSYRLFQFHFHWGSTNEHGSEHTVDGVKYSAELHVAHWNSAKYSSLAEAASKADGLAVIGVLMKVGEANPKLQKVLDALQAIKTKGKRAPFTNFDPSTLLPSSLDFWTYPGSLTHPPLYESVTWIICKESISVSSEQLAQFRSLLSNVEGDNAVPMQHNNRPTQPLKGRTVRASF

On to `CC(C)C(=O)Nc1nnc(S(N)(=O)=O)s1`, for which the Ki in test [1] is 75.1 nM; in test [2], 2.4 nM.
For the compound `CC(C)(C)C(=O)Nc1nnc(S(N)(=O)=O)s1`, the Ki in test [1] was determined as 63.4 nM; in test [2] it was 8.2 nM.
In the case of `CCC(=O)Nc1nnc(S(N)(=O)=O)s1` [PROPAZOLAMIDE], the Ki in test [2] stood at 12.8 nM.
`NS(=O)(=O)c1nnc(NC(=O)C2CCCCC2)s1`: the Ki was 62.8 nM in test [1] and 15.7 nM in test [2].
The corresponding values for `CCCC(=O)Nc1nnc(S(N)(=O)=O)s1` are 53.8 nM and 2.1 nM.
